For 11 compounds, IC50 results are on record in patent US20260022142A1, “MACROCYCLIC IMMUNOMODULATORS” (Bristol-Myers Squibb Company, priority 2022, published 2026).

Bridge positions count the residues as written; N and C are the ends. Square brackets hold non-standard residues; d marks the D form. Peptide text beside a SMILES is read from it. * marks the point of attachment. Ala(morpholin-4-yl) = N[C@@H](CN1CCOCC1)C(=O)O; Phe(4-COOH) = N[C@@H](Cc1ccc(C(=O)O)cc1)C(=O)O; Bip = N[C@@H](Cc1ccc(-c2ccccc2)cc1)C(=O)O; Phe(4-CN) = N#Cc1ccc(C[C@H](N)C(=O)O)cc1; Phe(3-Me) = Cc1cccc(C[C@H](N)C(=O)O)c1; Abu(3S-NH2) = C[C@H](N)[C@H](N)C(=O)O; Val(3-OH) = CC(C)(O)[C@H](N)C(=O)O; hArg = N=C(N)NCCCC[C@H](N)C(=O)O; Cha = N[C@@H](CC1CCCCC1)C(=O)O; Cba = N[C@@H](CC1CCC1)C(=O)O; dDab = NCC[C@@H](N)C(=O)O; Carboxymethyl = O=C(O)C*; Orn = NCCC[C@H](N)C(=O)O; Aun = NCCCCCCCCCCC(=O)O; Dab = NCC[C@H](N)C(=O)O; AEEA = NCCOCCOCC(=O)O

T1 sequence (Q15116 25-288): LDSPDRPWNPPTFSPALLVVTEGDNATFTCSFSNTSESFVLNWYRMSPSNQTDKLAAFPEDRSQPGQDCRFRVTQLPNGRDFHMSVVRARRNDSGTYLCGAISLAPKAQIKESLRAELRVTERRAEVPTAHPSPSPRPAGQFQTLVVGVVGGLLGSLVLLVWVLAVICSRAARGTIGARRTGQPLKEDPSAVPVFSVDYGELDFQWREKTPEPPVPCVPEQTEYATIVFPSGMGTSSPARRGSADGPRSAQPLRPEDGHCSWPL

The experiment concerns the target T1, PD-1/PD-L1 interaction (PE-labeled human PD-L1-Ig binding to Jurkat cell line over-expressing human PD-1) (Homo sapiens, UniProt Q15116).
T1 construct: expressed in transfected cells; host or cells: Jurkat
As to the kind of experiment: Jurkat-PD-1 Cell Binding High-Content Screening Assay (CBA). The following applies: Jurkat cell line over-expressing human PD-1; PE-labeled PD-L1-Ig 20 nM final; read-out: Jurkat hPD1-PDL1 IC50. The experiment is classed as cell-based. The procedure, abridged: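 First, compound is added to PD-1-expressing Jurkat cells in serum-containing DMEM and left 2 h at 37° C. Next, PE-conjugated PD-L1-Ig is introduced at 20 nM final concentration for 1 hour. Finally, cells are fixed in 4% paraformaldehyde with Hoechst 33342, washed and imaged.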
In the case of `Cc1cccc(C[C@@H]2NC(=O)[C@H](CC(=O)O)NC(=O)[C@H](Cc3ccc(OCC(=O)O)cc3)NC(=O)[C@@H](CCCNC(=N)N)NC(=O)CSC[C@@H](C(=O)N[C@@H](CCN)C(=O)NCCCCCCCCCCC(=O)O)NC(=O)[C@H](CO)NC(=O)[C@H](C(C)(C)O)NC(=O)[C@H](CC3CCCCC3)NC(=O)[C@H](CCN)NC(=O)[C@@H](CC(C)C)NC(=O)[C@H](CCCN)NC(=O)[C@H](Cc3ccc(OCC(=O)O)cc3)NC(=O)[C@H](Cc3ccc(-c4ccccc4)cc3)NC(=O)[C@H](Cc3ccc(OCC(=O)O)cc3)NC2=O)c1` [Compound 2232] ({CH2CO}-[dR]Y(Carboxymethyl)D[Phe(3-Me)]Y(Carboxymethyl)[Bip]Y(Carboxymethyl)[Orn][dL][Dab][Cha][Val(3-OH)]SC[Dab][Aun]-OH; thioether N-14), the IC50 was found to be 238 nM.

As to `Cc1cccc(C[C@@H]2NC(=O)[C@H](CC(=O)O)NC(=O)[C@H](Cc3ccc(OCC(=O)O)cc3)NC(=O)[C@H](CC3CCC3)NC(=O)CSC[C@@H](C(=O)N[C@@H](CCN)C(=O)NCCCCCCCCCCC(=O)O)NC(=O)[C@H](CO)NC(=O)[C@H](C(C)(C)O)NC(=O)[C@H](CC3CCCCC3)NC(=O)[C@H](CCN)NC(=O)[C@@H](CC(C)C)NC(=O)[C@H](CCCN)NC(=O)[C@H](Cc3ccc(OCC(=O)O)cc3)NC(=O)[C@H](Cc3ccc(-c4ccccc4)cc3)NC(=O)[C@H](Cc3ccc(OCC(=O)O)cc3)NC2=O)c1` [Compound 2233] ({CH2CO}-[Cba]Y(Carboxymethyl)D[Phe(3-Me)]Y(Carboxymethyl)[Bip]Y(Carboxymethyl)[Orn][dL][Dab][Cha][Val(3-OH)]SC[Dab][Aun]-OH; thioether N-14), the half-maximal inhibitory concentration (IC50) is 5 nM.

As to `Cc1cccc(C[C@@H]2NC(=O)[C@H](CC(=O)O)NC(=O)[C@H](Cc3ccc(OCC(=O)O)cc3)NC(=O)[C@H](CCCCNC(=N)N)NC(=O)CSC[C@@H](C(=O)N[C@@H](CCN)C(=O)NCCCCCCCCCCC(=O)O)NC(=O)[C@H](CO)NC(=O)[C@H](C(C)(C)O)NC(=O)[C@H](CC3CCCCC3)NC(=O)[C@H](CCN)NC(=O)[C@@H](CC(C)C)NC(=O)[C@H](CCCN)NC(=O)[C@H](Cc3ccc(OCC(=O)O)cc3)NC(=O)[C@H](Cc3ccc(-c4ccccc4)cc3)NC(=O)[C@H](Cc3ccc(OCC(=O)O)cc3)NC2=O)c1` [Compound 2234] ({CH2CO}-[hArg]Y(Carboxymethyl)D[Phe(3-Me)]Y(Carboxymethyl)[Bip]Y(Carboxymethyl)[Orn][dL][Dab][Cha][Val(3-OH)]SC[Dab][Aun]-OH; thioether N-14), the IC50 came to 2.6 nM.

As to `Cc1cccc(C[C@@H]2NC(=O)[C@H](CC(=O)O)NC(=O)[C@H](Cc3ccc(OCC(=O)O)cc3)NC(=O)[C@H](CN3CCOCC3)NC(=O)CSC[C@@H](C(=O)N[C@@H](CCN)C(=O)NCCCCCCCCCCC(=O)O)NC(=O)[C@H](CO)NC(=O)[C@H](C(C)(C)O)NC(=O)[C@H](CC3CCCCC3)NC(=O)[C@H](CCN)NC(=O)[C@@H](CC(C)C)NC(=O)[C@H](CCCN)NC(=O)[C@H](Cc3ccc(OCC(=O)O)cc3)NC(=O)[C@H](Cc3ccc(-c4ccccc4)cc3)NC(=O)[C@H](Cc3ccc(OCC(=O)O)cc3)NC2=O)c1` [Compound 2235] ({CH2CO}-[Ala(morpholin-4-yl)]Y(Carboxymethyl)D[Phe(3-Me)]Y(Carboxymethyl)[Bip]Y(Carboxymethyl)[Orn][dL][Dab][Cha][Val(3-OH)]SC[Dab][Aun]-OH; thioether N-14), the half-maximal inhibitory concentration (IC50) was found to be 0.9 nM.

Regarding `Cc1cccc(C[C@@H]2NC(=O)[C@H](CC(=O)O)NC(=O)[C@H](Cc3ccc(OCC(=O)O)cc3)NC(=O)[C@@H](CCN)NC(=O)CSC[C@@H](C(=O)N[C@@H](CCN)C(=O)NCCCCCCCCCCC(=O)O)NC(=O)[C@H](CO)NC(=O)[C@H](C(C)(C)O)NC(=O)[C@H](CC3CCCCC3)NC(=O)[C@H](CCN)NC(=O)[C@@H](CC(C)C)NC(=O)[C@H](CCCN)NC(=O)[C@H](Cc3ccc(OCC(=O)O)cc3)NC(=O)[C@H](Cc3ccc(-c4ccccc4)cc3)NC(=O)[C@H](Cc3ccc(OCC(=O)O)cc3)NC2=O)c1` [Compound 2236] ({CH2CO}-[dDab]Y(Carboxymethyl)D[Phe(3-Me)]Y(Carboxymethyl)[Bip]Y(Carboxymethyl)[Orn][dL][Dab][Cha][Val(3-OH)]SC[Dab][Aun]-OH; thioether N-14), the concentration for half-maximal inhibition (IC50) amounted to 185 nM.

Turning to `Cc1cccc(C[C@@H]2NC(=O)[C@H](CC(=O)O)NC(=O)[C@H](Cc3ccc(OCC(=O)O)cc3)NC(=O)[C@H]([C@H](C)N)NC(=O)CSC[C@@H](C(=O)N[C@@H](CCN)C(=O)NCCCCCCCCCCC(=O)O)NC(=O)[C@H](CO)NC(=O)[C@H](C(C)(C)O)NC(=O)[C@H](CC3CCCCC3)NC(=O)[C@H](CCN)NC(=O)[C@@H](CC(C)C)NC(=O)[C@H](CCCN)NC(=O)[C@H](Cc3ccc(OCC(=O)O)cc3)NC(=O)[C@H](Cc3ccc(-c4ccccc4)cc3)NC(=O)[C@H](Cc3ccc(OCC(=O)O)cc3)NC2=O)c1` [Compound 2237] ({CH2CO}-[Abu(3S-NH2)]Y(Carboxymethyl)D[Phe(3-Me)]Y(Carboxymethyl)[Bip]Y(Carboxymethyl)[Orn][dL][Dab][Cha][Val(3-OH)]SC[Dab][Aun]-OH; thioether N-14), the IC50 was 2.6 nM.

For the compound `Cc1cccc(C[C@@H]2NC(=O)[C@H](CC(=O)O)NC(=O)[C@H](Cc3ccc(OCC(=O)O)cc3)NC(=O)[C@H](CCCCN)NC(=O)CSC[C@@H](C(=O)N[C@@H](CCN)C(=O)NCCCCCCCCCCC(=O)O)NC(=O)[C@H](CO)NC(=O)[C@H](C(C)(C)O)NC(=O)[C@H](CC3CCCCC3)NC(=O)[C@H](CCN)NC(=O)[C@@H](CC(C)C)NC(=O)[C@H](CCCN)NC(=O)[C@H](Cc3ccc(OCC(=O)O)cc3)NC(=O)[C@H](Cc3ccc(-c4ccccc4)cc3)NC(=O)[C@H](Cc3ccc(OCC(=O)O)cc3)NC2=O)c1` [Compound 2238] ({CH2CO}-KY(Carboxymethyl)D[Phe(3-Me)]Y(Carboxymethyl)[Bip]Y(Carboxymethyl)[Orn][dL][Dab][Cha][Val(3-OH)]SC[Dab][Aun]-OH; thioether N-14), the half-maximal inhibitory concentration (IC50) was found to be 11.2 nM.

For `COC[C@@H]1NC(=O)CSC[C@@H](C(=O)N[C@@H](CCN)C(=O)NCCOCCOCC(=O)NCCCCCCCCCCC(=O)O)NC(=O)[C@H](CO)NC(=O)[C@H](C(C)(C)O)NC(=O)[C@H](CC2CCCCC2)NC(=O)[C@H](CCN)NC(=O)[C@@H](CC(C)C)NC(=O)[C@H](CCCN)NC(=O)[C@H](Cc2ccc(OCC(=O)O)cc2)NC(=O)[C@H](Cc2ccc(-c3ccccc3)cc2)NC(=O)[C@H](Cc2ccc(OCC(=O)O)cc2)NC(=O)[C@H](Cc2cccc(C)c2)NC(=O)[C@H](CC(=O)O)NC(=O)[C@H](Cc2ccc(OCC(=O)O)cc2)NC1=O` [Compound 2239] ({CH2CO}-S(Me)Y(Carboxymethyl)D[Phe(3-Me)]Y(Carboxymethyl)[Bip]Y(Carboxymethyl)[Orn][dL][Dab][Cha][Val(3-OH)]SC[Dab][AEEA][Aun]-OH; thioether N-14), the 50% inhibitory concentration (IC50) was 1.6 nM.

Consider `Cc1cccc(C[C@@H]2NC(=O)[C@H](CC(=O)O)NC(=O)[C@H](Cc3ccc(OCC(=O)O)cc3)NC(=O)[C@H](Cc3ccc(C#N)cc3)NC(=O)CSC[C@@H](C(=O)N[C@@H](CCN)C(=O)NCCOCCOCC(=O)NCCCCCCCCCCC(=O)O)NC(=O)[C@H](CO)NC(=O)[C@H](C(C)(C)O)NC(=O)[C@H](CC3CCCCC3)NC(=O)[C@H](CCN)NC(=O)[C@@H](CC(C)C)NC(=O)[C@H](CCCN)NC(=O)[C@H](Cc3ccc(OCC(=O)O)cc3)NC(=O)[C@H](Cc3ccc(-c4ccccc4)cc3)NC(=O)[C@H](Cc3ccc(OCC(=O)O)cc3)NC2=O)c1` [Compound 2240] ({CH2CO}-[Phe(4-CN)]Y(Carboxymethyl)D[Phe(3-Me)]Y(Carboxymethyl)[Bip]Y(Carboxymethyl)[Orn][dL][Dab][Cha][Val(3-OH)]SC[Dab][AEEA][Aun]-OH; thioether N-14), for which the IC50 is 7.3 nM.

With `COC[C@@H]1NC(=O)CSC[C@@H](C(=O)N[C@@H](CCN)C(=O)NCCOCCOCC(=O)NCCCCCCCCCCC(=O)O)NC(=O)[C@H](CO)NC(=O)[C@H](C(C)(C)O)NC(=O)[C@H](CC2CCCCC2)NC(=O)[C@H](CCN)NC(=O)[C@@H](CC(C)C)NC(=O)[C@H](CCCN)NC(=O)[C@H](Cc2ccc(OCC(=O)O)cc2)NC(=O)[C@H](Cc2ccc(-c3ccccc3)cc2)NC(=O)[C@H](Cc2ccc(OCC(=O)O)cc2)NC(=O)[C@H](Cc2cccc(C)c2)NC(=O)[C@H](CC(=O)O)NC(=O)[C@H](Cc2ccc(C(=O)O)cc2)NC1=O` [Compound 2241] ({CH2CO}-S(Me)[Phe(4-COOH)]D[Phe(3-Me)]Y(Carboxymethyl)[Bip]Y(Carboxymethyl)[Orn][dL][Dab][Cha][Val(3-OH)]SC[Dab][AEEA][Aun]-OH; thioether N-14), the concentration for half-maximal inhibition (IC50) worked out at 3.7 nM.

Regarding `Cc1cccc(C[C@@H]2NC(=O)[C@H](CC(=O)O)NC(=O)[C@H](Cc3ccc(C(=O)O)cc3)NC(=O)[C@H](Cc3ccc(C#N)cc3)NC(=O)CSC[C@@H](C(=O)N[C@@H](CCN)C(=O)NCCOCCOCC(=O)NCCCCCCCCCCC(=O)O)NC(=O)[C@H](CO)NC(=O)[C@H](C(C)(C)O)NC(=O)[C@H](CC3CCCCC3)NC(=O)[C@H](CCN)NC(=O)[C@@H](CC(C)C)NC(=O)[C@H](CCCN)NC(=O)[C@H](Cc3ccc(OCC(=O)O)cc3)NC(=O)[C@H](Cc3ccc(-c4ccccc4)cc3)NC(=O)[C@H](Cc3ccc(OCC(=O)O)cc3)NC2=O)c1` [Compound 2242] ({CH2CO}-[Phe(4-CN)][Phe(4-COOH)]D[Phe(3-Me)]Y(Carboxymethyl)[Bip]Y(Carboxymethyl)[Orn][dL][Dab][Cha][Val(3-OH)]SC[Dab][AEEA][Aun]-OH; thioether N-14), the 50% inhibitory concentration (IC50) amounted to 4 nM.
